Measured values as given in patent US8735387B2, “Oxazolopyrimidines as Edg-1 receptor agonists” (Sanofi, priority 2008, dated 2014).

The compounds below were run against T1, human Edg-1 receptor (Homo sapiens, UniProt P21453) (assay: GTP-γ-S assay using human Edg-1 receptors (scintillation proximity assay, membrane preparation from CHO Flp-In cell line)). Settings: example compound at 10 μM; relative to 10 μM S1P; GTP-γ-S SPA, human Edg-1 membranes.
T1 construct: expressed in transfected cells; membrane preparation
T1 sequence (P21453 whole entry): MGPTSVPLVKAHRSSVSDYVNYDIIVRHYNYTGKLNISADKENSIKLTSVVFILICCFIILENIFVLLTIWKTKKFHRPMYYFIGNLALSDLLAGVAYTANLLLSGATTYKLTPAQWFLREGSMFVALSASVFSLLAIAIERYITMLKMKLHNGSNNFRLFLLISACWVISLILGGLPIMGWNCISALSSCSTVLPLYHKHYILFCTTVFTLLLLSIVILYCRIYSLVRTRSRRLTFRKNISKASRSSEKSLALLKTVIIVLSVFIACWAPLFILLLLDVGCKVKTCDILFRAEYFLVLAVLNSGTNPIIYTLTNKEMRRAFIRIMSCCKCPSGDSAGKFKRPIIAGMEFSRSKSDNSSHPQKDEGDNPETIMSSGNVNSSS
Type: biochemical
Excerpt: Determination of the Pharmacological Activity A) GTP-γ-S Assay Using Human Edg-1 Receptors
In order to determine the Edg-1 receptor activation by the compounds of the invention, a GTP-γ-S (guanosine 5′-[γ-thio]triphosphate) assay for G-protein coupled receptor binding based on the scintillation proximity assay principle was used, employing a cell membrane preparation from a CHO Flp-In cell line which constitutively overexpresses the human Edg-1 receptor.
The Flp-In™ expression system (Invitrogen, cat. no. K6010-01) allows the generation of stable mammalian cell lines into which the gene of interest has been integrated through homologous recombination at a specific genomic location called Flp Recombination Target (FRT) site by means of a Flp recombinase encoded by the pOG44 expression plasmid. The integration of the pcDNA5/FRT expression construct into the Flp-In host cell line genome results in the transcription of the gene of interest. The stably transfected cells become hygromycin-resistant.
One day prior to transfection, 200 000 Flp-In-CHO cells were seeded in Ham F-12 medium (Invitrogen, cat. no. 31765) supplemented with 10% fetal calf serum (FCS; Perbio Science, cat. no. SH30068.03) in a 6-well plate and incubated at 37° C./5% CO2 overnight. Using the FuGENE® 6 transfection reagent (Roche, cat. no. 11988387001), cells were cotransfected with the Flp recombinase expression plasmid pOG44 and a modified plasmid additionally containing the edg-1 gene (accession no. NM_001400) termed as pcDNA5-FRT-TO_nFLAG_DEST-EDG-1 with a 9:1 ratio. To obtain the modified pcDNA5-FRT-TO_nFLAG_DEST plasmid, the Invitrogen plasmid pcDNA5/FRT/TO (Invitrogen, cat. no. V6520-20) was adapted to the Gateway® (Invitrogen) cloning system by inserting a Gateway cassette containing attR recombination sites flanking a ccdB gene and a chloramphenicol-resistance gene (Gateway conversion system, Invitrogen, cat. no. 11828-029). In addition a FLAG tag epitope was added before the 5′ att recombination site to allow recombinant expression of N-terminally FLAG-tagged proteins.
For the transfection of one well, 1.08 μg of pOG44 and 0.12 μg of pcDNA5-FRT-TO_nFLAG_DEST-EDG-1 were mixed to 100 μl of serum-free Ham F-12 medium containing 6 μl of FuGENE® 6 transfection reagent. After 20 min of incubation, the transfection reagent/DNA complex was distributed dropwise on the cells. The cells were incubated for 24 h at 37° C. Then the cells from 3 wells each were transferred to a T75 flask (Greiner Cellstar®, cat. no. 658175) containing Ham F-12 medium supplemented with 10% of FCS but without antibiotic and were incubated another 24 h. 48 h after transfection, the medium was replaced by selection medium (Ham F-12 supplemented with 10% of FCS and 300 μg/ml of hygromycin B (Invitrogen, cat. no. 10687-010)). The medium was exchanged every 2 to 3 days until a resistant population of cells had grown. […] After 2 weeks of selection, the cells were transferred into T175 flasks (Greiner Cellstar®, cat. no. 660175) and cultivated for batch production. Cells were harvested from the culture flasks by short treatment (2 to 5 min) with Accutase (PAA, cat. no. L11-007), resuspended in selection medium (see above) and centrifuged at 200×g for 5 min. Cells were resuspended in a mixture of 90% of FCS and 10% of dimethylsulfoxide and stored frozen in liquid nitrogen.
A membrane preparation was obtained by standard methods from the afore-described CHO Flp-In cell line constitutively overexpressing the human Edg-1 receptor. Briefly, the cryopreserved cells were taken in culture and grown until confluency in T175 cell culture flasks (Becton Dickinson, cat. no. 35 5001). […]

| SMILES | % Activation (Edg-1 receptor activation in percent of the activation by 10 μM S1P) [%] |
| --- | --- |
| CCCOc1nc(CCc2ccc(Cl)cc2)nc2oc(-c3cccc(F)c3)nc12 [Example 6] | 60 |
| Fc1cccc(-c2nc3c(OCC4CC4)nc(CCc4ccc(Cl)cc4)nc3o2)c1 [Example 7] | 23 |
| CCCOc1nc(C(C)c2ccccc2)nc2oc(-c3cccc(F)c3)nc12 (centres unmarked) [Example 14] | 97 |
| Cc1cccc(-c2nc3c(OCC4CC4)nc(C(C)c4ccccc4)nc3o2)c1 (centres unmarked) [Example 16] | 106 |
| CCCOc1nc(CN2CCC(F)(F)CC2)nc2oc(-c3cc(F)ccc3Cl)nc12 [Example 22] | 95 |
| CCCOc1nc(CN2CCCOCC2)nc2oc(-c3cc(F)ccc3Cl)nc12 [Example 23] | 97 |
| CCCOc1nc(CN2CCC(F)(F)CC2)nc2oc(-c3cc(F)cc(F)c3)nc12 [Example 25] | 117 |
| CCCOc1nc(CN2CCC(F)(F)CC2)nc2oc(-c3cccc(Cl)c3)nc12 [Example 28] | 102 |
| CCCOc1nc(CN2CCC(F)(F)CC2)nc2oc(-c3cccc(OC)c3)nc12 [Example 36] | 127 |

Results, then the compound that gave them:

| % Activation (Edg-1 receptor activation in percent of the activation by 10 μM S1P) [%] | SMILES |
| --- | --- |
| 115 | CCCOc1nc(CN2CCOCC2)nc2oc(-c3cc(F)cc(F)c3)nc12 [Example 24] |
| 123 | CCCOc1nc(CN2CCCOCC2)nc2oc(-c3cc(F)cc(F)c3)nc12 [Example 26] |
| 124 | CCCOc1nc(CN2CCOCC2)nc2oc(-c3cccc(Cl)c3)nc12 [Example 27] |
| 118 | CCCOc1nc(CN2CCCOCC2)nc2oc(-c3cccc(Cl)c3)nc12 [Example 29] |
| 114 | CCCOc1nc(CN2CCOCC2)nc2oc(-c3cccc(F)c3)nc12 [Example 30] |
| 59 | FCCCOc1nc(CN2CCOCC2)nc2oc(-c3cccc(F)c3)nc12 [Example 31] |
| 42 | FCCOc1nc(CN2CCOCC2)nc2oc(-c3cccc(F)c3)nc12 [Example 32] |
| 93 | CCCOc1nc(CN2CCC(F)(F)CC2)nc2oc(-c3cccc(F)c3)nc12 [Example 33] |
| 90 | CCCOc1nc(CN2CCCOCC2)nc2oc(-c3cccc(F)c3)nc12 [Example 34] |
| 119 | CCCOc1nc(CN2CCOCC2)nc2oc(-c3cccc(OC)c3)nc12 [Example 35] |
| 116 | CCCOc1nc(CN2CCCOCC2)nc2oc(-c3cccc(OC)c3)nc12 [Example 37] |
| 114 | CCCOc1nc(CN2CCOCC2)nc2oc(-c3cccc(C)c3)nc12 [Example 38] |

Same assay, conditions: example compound at 10 μM; relative to 10 μM S1P; GTP-γ-S SPA, human Edg-1 membranes; read-out: % Activation (Edg-1 receptor activation in percent of the activation by 10 μM S1P)

| SMILES | activation at 10 µM [%] |
| --- | --- |
| CCCOc1nc(CN2CCOCC2)nc2oc(-c3ccco3)nc12 [Example 2, 2-Furan-2-yl-5-morpholin-4-ylmethyl-7-propoxy-oxazolo[5,4-d]pyrimidine] | 80 |
| CCCOc1nc(CN2CCOCC2)nc2oc(-c3ccc(Br)o3)nc12 [Example 3, 2-(5-Bromo-furan-2-yl)-5-morpholin-4-ylmethyl-7-propoxy-oxazolo[5,4-d]pyrimidine] | 113 |
| CCCOc1nc(Cc2ccc(Cl)cc2)nc2oc(-c3cccc(F)c3)nc12 [Example 5, 5-(4-Chloro-benzyl)-2-(3-fluoro-phenyl)-7-propoxy-oxazolo[5,4-d]pyrimidine] | 98 |
| CCCOc1nc(CCc2ccc(OC)cc2)nc2oc(-c3cccc(C)c3)nc12 [Example 8, 5-[2-(4-methoxy-phenyl)-ethyl]-2-(3-methyl-phenyl)-7-propoxy-oxazolo[5,4-d]pyrimidine] | 51 |
| Cc1cccc(-c2nc3c(OCC4CC4)nc(CC(C)(C)c4ccccc4)nc3o2)c1 [Example 9, 7-Cyclopropylmethoxy-5-(2-methyl-2-phenyl-propyl)-2-(3-methyl-phenyl)-oxazolo[5,4-d]pyrimidine] | 37 |
| CCCOc1nc(C2(c3ccc(Cl)cc3)CC2)nc2oc(-c3cccc(C)c3)nc12 [Example 10, 5-[1-(4-Chloro-phenyl]-cyclopropyl]-7-propoxy-2-(3-methyl-phenyl)-oxazolo[5,4-d]pyrimidine] | 66 |
| CCCOc1nc(Cc2ccc(Cl)c(Cl)c2)nc2oc(-c3cccc(C)c3)nc12 [Example 11, 5-(3,4-Dichloro-benzyl)-7-propoxy-2-(3-methyl-phenyl)-oxazolo[5,4-d]pyrimidine] | 39 |
| CCCOc1nc(Cc2ccc(C(F)(F)F)cc2)nc2oc(-c3cccc(F)c3)nc12 [Example 12, 2-(3-Fluoro-phenyl)-7-propoxy-5-(4-trifluoromethyl-benzyl)-oxazolo[5,4-d]pyrimidine] | 65 |
| CCCOc1nc(C(C)c2ccccc2)nc2oc(-c3cccc(C)c3)nc12 (centres unmarked) [Example 13, 5-(1-Phenyl-ethyl)-7-propoxy-2-(3-methyl-phenyl)-oxazolo[5,4-d]pyrimidine] | 119 |
| CCOc1nc(C(C)c2ccccc2)nc2oc(-c3cccc(F)c3)nc12 (centres unmarked) [Example 15, 7-ethoxy-2-(3-fluoro-phenyl)-5-(1-phenyl-ethyl)-oxazolo[5,4-d]pyrimidine] | 104 |
| CCCOc1nc(Cc2ccc(Cl)cc2)nc2oc(-c3cc(C)c(O)c(C)c3)nc12 [Example 17, 4-[5-(4-Chloro-benzyl)-7-propoxy-oxazolo[5,4-d]pyrimidin-2-yl]-2,6-dimethyl-phenol] | 74 |
| CCCOc1nc(Cc2ccc(Cl)cc2)nc2oc(-c3cc(C)c(OCC(O)CO)c(C)c3)nc12 (centres unmarked) [Example 18, 3-{4-[5-(4-Chloro-benzyl)-7-propoxy-oxazolo[5,4-d]pyrimidin-2-yl]-2,6-dimethyl-phenoxy}-propane-1,2-diol] | 128 |
| CCCOc1nc(Cc2ccc(Cl)cc2)nc2oc(-c3cc(C)c(OCCO)c(C)c3)nc12 [Example 19, 2-{4-[5-(4-Chloro-benzyl)-7-propoxy-oxazolo[5,4-d]pyrimidin-2-yl]-2,6-dimethyl-phenoxy}-ethanol] | 102 |
| CCCOc1nc(Cc2ccc(Cl)cc2)nc2oc(-c3cc(C)c(OCC(O)CN)c(C)c3)nc12 (centres unmarked) [Example 20, 1-Amino-3-{4-[5-(4-chloro-benzyl)-7-propoxy-oxazolo[5,4-d]pyrimidin-2-yl]-2,6-dimethyl-phenoxy}-propan-2-ol] | 299 |
| CCCOc1nc(Cc2ccc(Cl)cc2)nc2oc(-c3cccc(N)c3)nc12 [Example 21, 3-[5-(4-Chloro-benzyl)-7-propoxy-oxazolo[5,4-d]pyrimidin-2-yl]-phenylamine] | 71 |

Results, then the compound that gave them:

| activation at 10 µM [%] | SMILES |
| --- | --- |
| 117 | CCCOc1nc(CN2CCOCC2)nc2oc(-c3cc(F)ccc3Cl)nc12 [Example 1, 2-(2-Chloro-5-fluoro-phenyl)-5-morpholin-4-ylmethyl-7-propoxy-oxazolo[5,4-d]pyrimidine] |
| 105 | CCCOc1nc(CN2CCOCC2)nc2oc(-c3cccc(O)c3)nc12 [Example 4, 3-(5-Morpholin-4-ylmethyl-7-propoxy-oxazolo[5,4-d]pyrimidin-2-yl)-phenol] |
